Data: patent US20080009418A1, “Selective Inhibitors” (Alchemia LTD., priority 2004, published 2008)

Columns and labels:
Conditions in all cases: compound at 10 μM
[1] = biological target: T1, Human δ-opioid (DOP) (Homo sapiens, UniProt P41143); test: Radioligand binding, human δ-opioid (DOP) membranes, FlashPlate, [3H]-Bremazocine
T1 construct: purchased Perkin Elmer Biosignal
Summary of the method: (§1)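 Cloned human receptor membranes were coated onto FlashPlate wells and incubated with radioligand and compound (added from a 0.5 mM DMSO daughter plate) for 1 hour at room temperature in the dark. Scintillation counting gave percent inhibition, with DMSO defining total and reference ligand defining non-specific binding.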

[2] = biological target: T2, Human neurokinin (NK1) (Homo sapiens, UniProt P25103); test: Radioligand binding, human neurokinin NK1 membranes, filtration, [125I]-Substance P
T2 construct: purchased Perkin Elmer Biosignal
T2 sequence (P25103 whole entry): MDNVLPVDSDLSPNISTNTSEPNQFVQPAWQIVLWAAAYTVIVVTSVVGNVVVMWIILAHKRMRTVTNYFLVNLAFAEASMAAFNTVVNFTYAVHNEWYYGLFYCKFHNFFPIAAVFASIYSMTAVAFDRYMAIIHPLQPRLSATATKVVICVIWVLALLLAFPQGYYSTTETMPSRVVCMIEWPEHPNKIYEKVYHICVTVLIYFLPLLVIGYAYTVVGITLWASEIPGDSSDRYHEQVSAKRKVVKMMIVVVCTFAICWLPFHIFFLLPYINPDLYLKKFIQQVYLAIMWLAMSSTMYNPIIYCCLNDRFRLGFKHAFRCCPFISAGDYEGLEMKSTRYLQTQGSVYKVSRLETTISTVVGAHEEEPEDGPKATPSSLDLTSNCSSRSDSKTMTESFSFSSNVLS
Summary of the method: (§2)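 Membranes from cloned human receptors were incubated with compound and radioligand for 1 hour at room temperature. Bound ligand was collected on 0.3% PEI-soaked filters, washed with cold 50 mM Tris-HCl pH 7.4, and counted by scintillation. Percent inhibition was computed against DMSO totals and reference-ligand nonspecific wells.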

[3] = biological target: T3, Human Melanocortin (MC4) (Homo sapiens, UniProt P32245); test: Radioligand binding, human melanocortin MC4 membranes, FlashPlate, [125I]-NDP-αMSH
T3 construct: purchased Perkin Elmer Biosignal
T3 sequence (P32245 whole entry): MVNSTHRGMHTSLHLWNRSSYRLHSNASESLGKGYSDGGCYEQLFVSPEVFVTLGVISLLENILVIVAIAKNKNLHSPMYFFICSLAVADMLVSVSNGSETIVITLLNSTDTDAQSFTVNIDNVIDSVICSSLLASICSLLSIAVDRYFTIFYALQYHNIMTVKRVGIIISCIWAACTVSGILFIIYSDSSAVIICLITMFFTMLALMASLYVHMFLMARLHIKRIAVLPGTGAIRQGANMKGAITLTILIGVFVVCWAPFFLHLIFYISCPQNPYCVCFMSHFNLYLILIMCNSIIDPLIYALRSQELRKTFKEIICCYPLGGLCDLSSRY
Summary of the method: as §1

[4] = biological target: T4, Human Melanocortin (MC3) (Homo sapiens, UniProt P41968); test: Radioligand binding, human melanocortin MC3 membranes, FlashPlate, [125I]-NDP-αMSH
T4 construct: purchased Perkin Elmer Biosignal
T4 sequence (P41968 whole entry): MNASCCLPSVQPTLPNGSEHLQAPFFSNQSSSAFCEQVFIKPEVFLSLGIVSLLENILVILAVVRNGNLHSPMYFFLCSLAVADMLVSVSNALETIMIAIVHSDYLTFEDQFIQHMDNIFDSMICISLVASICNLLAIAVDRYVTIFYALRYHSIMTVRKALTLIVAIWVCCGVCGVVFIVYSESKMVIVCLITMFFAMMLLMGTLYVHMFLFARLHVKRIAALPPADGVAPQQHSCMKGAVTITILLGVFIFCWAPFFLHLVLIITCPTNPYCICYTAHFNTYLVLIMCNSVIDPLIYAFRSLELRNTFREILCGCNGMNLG
Summary of the method: as §1

[5] = biological target: T5, Human neuropeptide Y (NPY-Y1) (Homo sapiens, UniProt P25929); test: Radioligand binding, human neuropeptide Y NPY-Y1 membranes, FlashPlate, [125I]-PYY
T5 construct: purchased Perkin Elmer Biosignal
T5 sequence (P25929 1-384): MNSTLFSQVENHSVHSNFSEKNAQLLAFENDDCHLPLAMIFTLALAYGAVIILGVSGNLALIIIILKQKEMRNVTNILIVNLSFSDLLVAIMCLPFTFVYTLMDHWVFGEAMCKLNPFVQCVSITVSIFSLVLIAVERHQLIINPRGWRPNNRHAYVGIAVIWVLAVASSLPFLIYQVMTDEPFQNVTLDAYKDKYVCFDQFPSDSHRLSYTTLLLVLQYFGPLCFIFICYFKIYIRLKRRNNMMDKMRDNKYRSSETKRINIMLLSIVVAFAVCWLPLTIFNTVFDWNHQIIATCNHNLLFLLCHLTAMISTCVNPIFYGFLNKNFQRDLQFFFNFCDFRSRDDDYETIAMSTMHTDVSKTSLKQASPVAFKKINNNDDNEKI
Summary of the method: as §1

[6] = biological target: T6, Human melanin-concentrating hormone (MCH1) (Homo sapiens, UniProt Q99705); test: Radioligand binding, human melanin-concentrating hormone MCH1 membranes, FlashPlate, [125I]-S36057
T6 construct: purchased Perkin Elmer Biosignal
T6 sequence (Q99705 whole entry): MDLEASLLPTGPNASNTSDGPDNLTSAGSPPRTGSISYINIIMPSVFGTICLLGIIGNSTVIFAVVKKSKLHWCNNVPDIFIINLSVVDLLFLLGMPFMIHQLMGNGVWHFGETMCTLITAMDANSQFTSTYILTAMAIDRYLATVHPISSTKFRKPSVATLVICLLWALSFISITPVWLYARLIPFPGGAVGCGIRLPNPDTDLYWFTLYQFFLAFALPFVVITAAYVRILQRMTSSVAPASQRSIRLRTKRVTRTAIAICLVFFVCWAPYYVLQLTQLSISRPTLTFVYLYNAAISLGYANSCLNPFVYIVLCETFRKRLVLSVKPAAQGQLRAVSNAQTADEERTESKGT
Summary of the method: as §1

[7] = biological target: T7, Human κ-Opioid (KOP) (Homo sapiens, UniProt P41145); test: Radioligand binding, human κ-opioid (KOP) membranes, filtration, [3H]-Diprenorphine
T7 construct: purchased Perkin Elmer Biosignal
T7 sequence (P41145 whole entry): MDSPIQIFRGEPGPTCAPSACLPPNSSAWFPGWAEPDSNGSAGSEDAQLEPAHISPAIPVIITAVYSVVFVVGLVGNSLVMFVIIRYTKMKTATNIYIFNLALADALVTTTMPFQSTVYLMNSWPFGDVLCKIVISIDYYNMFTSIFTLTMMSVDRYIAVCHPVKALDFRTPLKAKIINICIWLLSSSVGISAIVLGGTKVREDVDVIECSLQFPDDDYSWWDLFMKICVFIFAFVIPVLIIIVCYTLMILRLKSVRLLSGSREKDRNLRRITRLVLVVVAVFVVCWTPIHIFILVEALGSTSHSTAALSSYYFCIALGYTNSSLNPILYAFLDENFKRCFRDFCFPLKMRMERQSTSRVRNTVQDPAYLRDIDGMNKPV
Summary of the method: as §2

[8] = biological target: T8, Mouse urotensin (mUR2) (Mus musculus, UniProt Q8VIH9); test: Radioligand binding, mouse urotensin mUR2 membranes, FlashPlate, [125I]-Urotensin II
T8 construct: purchased Perkin Elmer Biosignal
T8 sequence (Q8VIH9 1-385): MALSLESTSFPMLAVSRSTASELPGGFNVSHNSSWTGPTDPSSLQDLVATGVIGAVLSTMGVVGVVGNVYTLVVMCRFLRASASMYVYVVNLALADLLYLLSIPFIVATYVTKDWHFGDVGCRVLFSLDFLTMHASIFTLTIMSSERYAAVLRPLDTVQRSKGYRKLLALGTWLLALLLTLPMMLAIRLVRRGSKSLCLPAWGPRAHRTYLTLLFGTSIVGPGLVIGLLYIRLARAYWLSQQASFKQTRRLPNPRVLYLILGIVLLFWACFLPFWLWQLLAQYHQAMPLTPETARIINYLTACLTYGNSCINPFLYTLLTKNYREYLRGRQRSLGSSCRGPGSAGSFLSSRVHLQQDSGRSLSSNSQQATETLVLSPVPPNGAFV
Summary of the method: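 Cloned mouse urotensin (mUR2) receptor membranes from Perkin Elmer Biosignal were immobilized in FlashPlate microplates using a proprietary coating. Each well got 19.5 μl buffer, then 0.5 μl of DMSO, reference ligand, or compound. Adding 5 μl of [125I]-Urotensin II, diluted to 5× final concentration in binding buffer, started binding. Plates were sealed with TopSeal-A and incubated 1 hour at room temperature in the dark. Wells were counted for 30 seconds each on a TopCount after a 60-second delay, and percentage inhibition was calculated.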

[9] = biological target: T9, Human opioid (ORL1) (Homo sapiens, UniProt P41146); test: Radioligand binding, human opioid ORL1 membranes, FlashPlate, [125I]-Nociceptin
T9 construct: purchased Perkin Elmer Biosignal
T9 sequence (P41146 whole entry): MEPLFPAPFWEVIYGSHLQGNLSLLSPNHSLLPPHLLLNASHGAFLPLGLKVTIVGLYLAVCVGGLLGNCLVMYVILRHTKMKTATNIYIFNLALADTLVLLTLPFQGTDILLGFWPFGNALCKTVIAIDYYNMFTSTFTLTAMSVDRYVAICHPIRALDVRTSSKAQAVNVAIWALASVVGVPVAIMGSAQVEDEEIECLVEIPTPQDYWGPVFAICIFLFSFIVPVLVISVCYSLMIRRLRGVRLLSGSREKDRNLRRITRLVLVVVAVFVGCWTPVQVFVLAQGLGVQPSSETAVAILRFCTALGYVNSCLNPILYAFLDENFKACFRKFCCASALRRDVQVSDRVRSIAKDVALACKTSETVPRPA
Summary of the method: as §1

[10] = biological target: T10, Human μ-opioid (MOP) (Homo sapiens, UniProt P35372); test: Radioligand binding, human μ-opioid (MOP) membranes, FlashPlate, [3H]-Naloxone
T10 construct: purchased Perkin Elmer Biosignal
T10 sequence (P35372 whole entry): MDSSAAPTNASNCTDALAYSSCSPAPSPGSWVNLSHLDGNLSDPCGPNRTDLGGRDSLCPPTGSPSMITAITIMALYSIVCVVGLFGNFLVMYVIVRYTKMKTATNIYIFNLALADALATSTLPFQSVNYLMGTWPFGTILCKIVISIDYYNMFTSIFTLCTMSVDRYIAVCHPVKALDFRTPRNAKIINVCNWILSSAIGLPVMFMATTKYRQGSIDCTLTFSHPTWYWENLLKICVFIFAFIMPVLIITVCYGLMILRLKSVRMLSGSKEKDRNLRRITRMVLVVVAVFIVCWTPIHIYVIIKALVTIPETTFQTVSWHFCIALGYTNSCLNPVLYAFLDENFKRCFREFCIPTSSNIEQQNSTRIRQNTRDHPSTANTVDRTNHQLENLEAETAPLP
Summary of the method: as §1

[11] = biological target: T11, Human melanocortin (MC5) (Homo sapiens, UniProt P33032); test: Radioligand binding, human melanocortin MC5 membranes, FlashPlate, [125I]-NDP-αMSH
T11 construct: purchased Perkin Elmer Biosignal
T11 sequence (P33032 whole entry): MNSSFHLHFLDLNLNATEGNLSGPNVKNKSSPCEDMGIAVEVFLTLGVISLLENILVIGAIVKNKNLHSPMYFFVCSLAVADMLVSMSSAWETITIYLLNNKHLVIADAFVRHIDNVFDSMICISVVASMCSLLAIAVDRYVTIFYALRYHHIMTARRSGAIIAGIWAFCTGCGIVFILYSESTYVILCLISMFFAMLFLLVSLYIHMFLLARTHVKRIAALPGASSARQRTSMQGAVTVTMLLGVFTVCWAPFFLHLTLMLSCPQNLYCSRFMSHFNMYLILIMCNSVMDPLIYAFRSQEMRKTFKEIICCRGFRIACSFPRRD
Summary of the method: as §1

T1 sequence (P41143 whole entry): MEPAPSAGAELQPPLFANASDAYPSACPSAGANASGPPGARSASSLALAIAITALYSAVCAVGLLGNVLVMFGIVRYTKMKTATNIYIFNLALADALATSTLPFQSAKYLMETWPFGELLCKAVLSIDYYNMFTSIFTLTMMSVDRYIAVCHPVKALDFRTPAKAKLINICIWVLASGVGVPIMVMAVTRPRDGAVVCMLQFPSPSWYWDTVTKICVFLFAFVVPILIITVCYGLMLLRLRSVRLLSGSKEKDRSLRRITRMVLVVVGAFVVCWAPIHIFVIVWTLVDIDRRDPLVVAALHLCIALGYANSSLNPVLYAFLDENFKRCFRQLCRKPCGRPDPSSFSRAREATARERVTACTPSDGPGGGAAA

CO[C@H]1[C@H](O)[C@@H](COCc2ccc3ccccc3c2)OC(OCc2ccc(Cl)cc2)[C@@H]1NC(=O)C1CCCN(C(=N)N)C1 (stereo partly shown) [compound 353]
A1: inhibition of radioligand binding, human δ-opioid (DOP) ([1]; [3H]-Bremazocine): − (“−” indicates less than 50% inhibition at 10 μM) | A8: inhibition of radioligand binding, human neurokinin (NK1) ([2]; [125I]-Substance P): + (“+” indicates greater than 50% inhibition at 10 μM) | A4: inhibition of radioligand binding, human melanocortin (MC4) ([3]; [125I]-NDP-αMSH): − (“−” indicates less than 50% inhibition at 10 μM) | A3: inhibition of radioligand binding, human melanocortin (MC3) ([4]; [125I]-NDP-αMSH): − (“−” indicates less than 50% inhibition at 10 μM) | A9: inhibition of radioligand binding, human neuropeptide Y (NPY-Y1) ([5]; [125I]-PYY): − (“−” indicates less than 50% inhibition at 10 μM) | A6: inhibition of radioligand binding, human melanin-concentrating hormone (MCH1) ([6]; [125I]-S36057): − (“−” indicates less than 50% inhibition at 10 μM) | A2: inhibition of radioligand binding, human κ-opioid (KOP) ([7]; [3H]-Diprenorphine): − (“−” indicates less than 50% inhibition at 10 μM) | A11: inhibition of radioligand binding, mouse urotensin (mUR2) ([8]; [125I]-Urotensin II): − (“−” indicates less than 50% inhibition at 10 μM) | A10: inhibition of radioligand binding, human opioid (ORL1) ([9]; [125I]-Nociceptin): − (“−” indicates less than 50% inhibition at 10 μM) | A7: inhibition of radioligand binding, human μ-opioid (MOP) ([10]; [3H]-Naloxone): − (“−” indicates less than 50% inhibition at 10 μM) | A5: inhibition of radioligand binding, human melanocortin (MC5) ([11]; [125I]-NDP-αMSH): − (“−” indicates less than 50% inhibition at 10 μM)

NCCCC(=O)NC1C(OCc2ccc3ccccc3c2)OC(COCc2ccc3ccccc3c2)C(O)C1OCc1ccccc1 (stereo not shown) [compound 396]
A1: inhibition of radioligand binding ([1]; [3H]-Bremazocine, human DOP membranes): − (“−” indicates less than 50% inhibition at 10 μM) | A8: inhibition of radioligand binding ([2]; [125I]-Substance P, human NK1 membranes): + (“+” indicates greater than 50% inhibition at 10 μM) | A4: inhibition of radioligand binding ([3]; [125I]-NDP-αMSH, human MC4 membranes, 10 µM): + (“+” indicates greater than 50% inhibition at 10 μM) | A3: inhibition of radioligand binding ([4]; [125I]-NDP-αMSH, human MC3 membranes, 10 µM): + (“+” indicates greater than 50% inhibition at 10 μM) | A9: inhibition of radioligand binding ([5]; [125I]-PYY, human NPY-Y1 membranes): − (“−” indicates less than 50% inhibition at 10 μM) | A6: inhibition of radioligand binding ([6]; [125I]-S36057, human MCH1 membranes, 10 µM): − (“−” indicates less than 50% inhibition at 10 μM) | A2: inhibition of radioligand binding ([7]; [3H]-Diprenorphine, human KOP membranes): − (“−” indicates less than 50% inhibition at 10 μM) | A11: inhibition of radioligand binding ([8]; [125I]-Urotensin II, mouse mUR2 membranes): − (“−” indicates less than 50% inhibition at 10 μM) | A10: inhibition of radioligand binding ([9]; [125I]-Nociceptin, human ORL1 membranes, 10 µM): − (“−” indicates less than 50% inhibition at 10 μM) | A7: inhibition of radioligand binding ([10]; [3H]-Naloxone, human MOP membranes): − (“−” indicates less than 50% inhibition at 10 μM) | A5: inhibition of radioligand binding ([11]; [125I]-NDP-αMSH, human MC5 membranes): + (“+” indicates greater than 50% inhibition at 10 μM)

CO[C@H]1[C@H](O)[C@@H](COCc2ccc3ccccc3c2)OC(OCc2ccc3ccccc3c2)[C@@H]1NC(=O)CCCNC(=N)N (stereo partly shown) [compound 73]
A1 radioligand binding inhibition ([1]; human δ-opioid (DOP) membranes): − (“−” indicates less than 50% inhibition at 10 μM) | A8 radioligand binding inhibition ([2]; human neurokinin NK1 membranes): + (“+” indicates greater than 50% inhibition at 10 μM) | A4 radioligand binding inhibition ([3]; human melanocortin MC4 membranes): − (“−” indicates less than 50% inhibition at 10 μM) | A3 radioligand binding inhibition ([4]; human melanocortin MC3 membranes): − (“−” indicates less than 50% inhibition at 10 μM) | A9 radioligand binding inhibition ([5]; human NPY-Y1 membranes): − (“−” indicates less than 50% inhibition at 10 μM) | A6 radioligand binding inhibition ([6]; human MCH1 membranes): − (“−” indicates less than 50% inhibition at 10 μM) | A2 radioligand binding inhibition ([7]; human κ-opioid (KOP) membranes): + (“+” indicates greater than 50% inhibition at 10 μM) | A11 radioligand binding inhibition ([8]; mouse urotensin mUR2 membranes): − (“−” indicates less than 50% inhibition at 10 μM) | A10 radioligand binding inhibition ([9]; human ORL1 membranes): + (“+” indicates greater than 50% inhibition at 10 μM) | A7 radioligand binding inhibition ([10]; human μ-opioid (MOP) membranes): + (“+” indicates greater than 50% inhibition at 10 μM) | A5 radioligand binding inhibition ([11]; human melanocortin MC5 membranes): + (“+” indicates greater than 50% inhibition at 10 μM)

COC1O[C@H](COCC(=O)O)[C@@H](O)[C@H](OCc2ccccc2)[C@H]1NC(=O)c1cnc[nH]1 (stereo partly shown) [compound 128]
A1 radioligand binding, percentage inhibition ([1]; [3H]-Bremazocine): − (“−” indicates less than 50% inhibition at 10 μM) | A8 radioligand binding, percentage inhibition ([2]; [125I]-Substance P): + (“+” indicates greater than 50% inhibition at 10 μM) | A4 radioligand binding, percentage inhibition ([3]; [125I]-NDP-αMSH): − (“−” indicates less than 50% inhibition at 10 μM) | A3 radioligand binding, percentage inhibition ([4]; [125I]-NDP-αMSH): − (“−” indicates less than 50% inhibition at 10 μM) | A9 radioligand binding, percentage inhibition ([5]; [125I]-PYY): − (“−” indicates less than 50% inhibition at 10 μM) | A6 radioligand binding, percentage inhibition ([6]; [125I]-S36057): − (“−” indicates less than 50% inhibition at 10 μM) | A2 radioligand binding, percentage inhibition ([7]; [3H]-Diprenorphine): − (“−” indicates less than 50% inhibition at 10 μM) | A11 radioligand binding, percentage inhibition ([8]; [125I]-Urotensin II): − (“−” indicates less than 50% inhibition at 10 μM) | A10 radioligand binding, percentage inhibition ([9]; [125I]-Nociceptin): − (“−” indicates less than 50% inhibition at 10 μM) | A7 radioligand binding, percentage inhibition ([10]; [3H]-Naloxone): − (“−” indicates less than 50% inhibition at 10 μM) | A5 radioligand binding, percentage inhibition ([11]; [125I]-NDP-αMSH): − (“−” indicates less than 50% inhibition at 10 μM)

N=C(N)NCCC(=O)N[C@H]1C(OCc2ccc(Cl)cc2)O[C@H](COCc2ccc3ccccc3c2)[C@@H](O)[C@@H]1OCc1ccc2ccccc2c1 (stereo partly shown) [compound 528]
A1: inhibition of radioligand binding, human δ-opioid (DOP) ([1]; [3H]-Bremazocine): − (“−” indicates less than 50% inhibition at 10 μM) | A8: inhibition of radioligand binding, human neurokinin (NK1) ([2]; [125I]-Substance P): + (“+” indicates greater than 50% inhibition at 10 μM) | A4: inhibition of radioligand binding, human melanocortin (MC4) ([3]; [125I]-NDP-αMSH, 10 µM): − (“−” indicates less than 50% inhibition at 10 μM) | A3: inhibition of radioligand binding, human melanocortin (MC3) ([4]; [125I]-NDP-αMSH, 10 µM): − (“−” indicates less than 50% inhibition at 10 μM) | A9: inhibition of radioligand binding, human neuropeptide Y (NPY-Y1) ([5]; [125I]-PYY): − (“−” indicates less than 50% inhibition at 10 μM) | A6: inhibition of radioligand binding, human melanin-concentrating hormone (MCH1) ([6]; [125I]-S36057, 10 µM): − (“−” indicates less than 50% inhibition at 10 μM) | A2: inhibition of radioligand binding, human κ-opioid (KOP) ([7]; [3H]-Diprenorphine, 10 µM): − (“−” indicates less than 50% inhibition at 10 μM) | A11: inhibition of radioligand binding, mouse urotensin (mUR2) ([8]; [125I]-Urotensin II): − (“−” indicates less than 50% inhibition at 10 μM) | A10: inhibition of radioligand binding, human opioid (ORL1) ([9]; [125I]-Nociceptin): − (“−” indicates less than 50% inhibition at 10 μM) | A7: inhibition of radioligand binding, human μ-opioid (MOP) ([10]; [3H]-Naloxone): − (“−” indicates less than 50% inhibition at 10 μM) | A5: inhibition of radioligand binding, human melanocortin (MC5) ([11]; [125I]-NDP-αMSH, 10 µM): − (“−” indicates less than 50% inhibition at 10 μM)
